Measured values published in patent US20210221784A1, “COMPOUNDS AND COMPOSITIONS FOR THE TREATMENT OF PAIN” (Université de Strasbourg, priority 2018, published 2021).

Columns and labels:
[1] = biological target: T1, hNPFFR2 (Homo sapiens, UniProt Q9Y5X5); test: Radioligand binding competition, membranes from CHO cells expressing hNPFFR2; details: 0.015 nM [D-Tyr1[125I], N-MePhe3]-NPFF, 1 hr at 25° C.; for Ki: read-out: NPFF2-R Ki
T1 construct: expressed in transfected cells; membranes
Description: (§1) Competition experiments with membranes from CHO cells stably expressing hNPFFR1 and hNPFFR2 were performed essentially as described in Elhabazi, K., et al. Neuropharmacology, 2013. 75C, 164-171., Briefly, hNPFFR1 or hNPFFR2 membranes (5 to 10 μg of proteins) were incubated (1 hr at 25° C.; 0.25 mL total volume) with 0.015 nM [D-Tyr1[125I], N-MePhe3]-NPFF (Hartmann Analytic GmbH) in 50 mM HEPES (pH 7.4), 1 mM CaCl2, 1 mM MgCl2 and 0.1% bovine serum albumin. Non-specific binding was determined in the presence of 10 μM RFRP-3. Incubation was terminated by rapid filtration through a 96-well GF/B unifilter apparatus (Perkin Elmer Life and Analytical Sciences, Courtaboeuf, France). Unifilters were washed five times with binding buffer, then dried for 1 h at 65° C. After addition of 40 μL scintillation cocktail (Microscint-O, Perkin Elmer) per well, bound radioactivity was determined on a TopCount scintillation counter (Perkin Elmer).

[2] = biological target: T2, hNPFFR1 (Homo sapiens, UniProt Q9GZQ6); test: Radioligand binding competition, membranes from CHO cells expressing hNPFFR1; details: 0.015 nM [D-Tyr1[125I], N-MePhe3]-NPFF, 1 hr at 25° C.; for Ki: read-out: NPFF1-R Ki
T2 construct: expressed in transfected cells; membranes
T2 sequence (Q9GZQ6 whole entry): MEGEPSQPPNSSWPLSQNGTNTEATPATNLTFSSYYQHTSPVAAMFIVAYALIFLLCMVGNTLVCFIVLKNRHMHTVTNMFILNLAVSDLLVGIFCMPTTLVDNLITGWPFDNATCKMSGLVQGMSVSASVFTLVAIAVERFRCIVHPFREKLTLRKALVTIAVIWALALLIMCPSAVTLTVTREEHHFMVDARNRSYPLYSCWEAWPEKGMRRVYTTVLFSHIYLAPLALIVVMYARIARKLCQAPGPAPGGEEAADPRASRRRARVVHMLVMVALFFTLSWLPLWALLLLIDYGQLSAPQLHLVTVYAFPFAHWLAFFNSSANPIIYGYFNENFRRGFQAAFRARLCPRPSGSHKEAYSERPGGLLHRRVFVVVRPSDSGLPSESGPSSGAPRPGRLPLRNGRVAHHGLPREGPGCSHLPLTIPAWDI
Description: as §1

[3] = biological target: T3, human NPFFR1 (hNPFFR1) receptor (Homo sapiens, UniProt Q9GZQ6); test: Human NPFFR1 evaluation using BRET biosensors in HEK-293 T cells; assay type: cell-based; details: hNPFFR1 in HEK-293 T cells, stimulated by EC80 RFRP-3, read-out: IC50 of antagonist activity
T3 construct: expressed in transfected cells; host or cells: HEK-293 T cells, transient co-transfection
T3 sequence (Q9GZQ6 whole entry): as above
Description: Compounds of the present invention were tested successively for their agonist and antagonist activities on human NPFFR1 (hNPFFR1) receptor transiently over-expressed in HEK-293 T cells. Compounds exert agonist activity if, by themselves in absence of neuropeptide RFRP-3 (also named NPVF) they activate hNPFFR1; and they exert antagonist activity if they decrease the action of RFRP-3 on the receptor. The assay used to measure compound activity is based on BRET (Bioluminescence Resonance Energy Transfer) biosensors and is designed to monitor the plasma membrane translocation of protein that interacts with specific Ga subunit. The specific effector (luciferase tagged: BRET donor) recruited at the membrane will be in close proximity to a plasma membrane anchor (GFP tagged: BRET acceptor) to induce a BRET signal (Ramdan et al, 2006, Chapter 5, Current Protocols in Neuroscience).
HEK-293 T cells are maintained in Dulbecco's Modified Eagle's Medium supplemented with 10% Foetal Calf Serum, 1% Penicillin/Streptomycin at 37° C./5% CO2. Cells are co-transfected using polyethylenimine (25 kDa linear) with four DNA plasmids encoding; hNPFFR1, GαoB, a Gi family specific intracellular effector fused to luciferase (BRET donor), a plasma membrane effector fused to GFP (BRET acceptor). After transfection, cells are cultured for 48 h at 37° C./5% CO2.
Receptor activity is detected by changes in BRET signal.
On the day of the assay, cells are detached using trypsin 0.05%, resuspended in assay buffer (1.8 mM CaCl2, 1 mM MgCl2, 2.7 mM KCl, 137 mM NaCl, 0.4 mM NaH2PO4, 5.5 mM D-Glucose, 11.9 mM NaHCO3, 25 mM Hepes) and seeded in 384 well plate at a density of 20,000 cells per well. Then, plates are equilibrated 3.5 hours at 37° C. before adding compounds.
Compounds and luciferase substrate are added to the cells using an automated device (Freedom Evo®, Tecan) and BRET readings are collected on EnVision (PerkinElmer) with specific filters (410 nm BW 80 nm, 515 nm BW 30 nm).
Agonist and antagonist activities of compounds are consecutively evaluated on the same cell plate. Agonist activity is first measured after 10 minutes incubation with compound alone on the cells. Then, cells are stimulated by an EC80 RFRP-3 concentration and luminescence is recorded for additional 10 minutes. EC80 RFRP-3 concentration is the concentration giving 80% of the maximal RFRP-3 response. Agonist or antagonist activities are evaluated in comparison to basal signals evoked by assay buffer or EC80 RFRP-3 alone, respectively.
For IC50 determination, a dose-response test is performed using 20 concentrations (ranging over 6 logs) of each compound. Dose-response curves are fitted using the sigmoidal dose-response (variable slope) analysis in GraphPad Prism software (GraphPad Software) and IC50 of antagonist activity is calculated. Dose-response experiments are performed in duplicate, in two independent experiments.

T1 sequence (Q9Y5X5 whole entry): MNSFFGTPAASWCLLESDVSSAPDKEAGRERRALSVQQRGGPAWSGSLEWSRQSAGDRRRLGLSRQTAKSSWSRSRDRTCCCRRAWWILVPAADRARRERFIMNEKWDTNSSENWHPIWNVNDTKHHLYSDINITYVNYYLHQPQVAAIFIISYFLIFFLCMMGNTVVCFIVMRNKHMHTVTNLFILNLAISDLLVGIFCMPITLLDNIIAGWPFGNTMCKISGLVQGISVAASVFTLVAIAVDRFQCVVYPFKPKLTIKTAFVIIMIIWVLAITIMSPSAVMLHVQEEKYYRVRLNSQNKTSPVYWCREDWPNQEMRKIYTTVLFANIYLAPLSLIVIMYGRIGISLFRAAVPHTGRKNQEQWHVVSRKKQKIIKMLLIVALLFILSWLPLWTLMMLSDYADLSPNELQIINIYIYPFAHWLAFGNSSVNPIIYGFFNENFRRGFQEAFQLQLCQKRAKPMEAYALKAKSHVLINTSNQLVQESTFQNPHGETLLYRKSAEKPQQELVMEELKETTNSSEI

Ki [1] [µM]	Ki [2] [nM]	IC50 [3] [nM]	NPFF2-R Ki (nM) [1]	NPFF1-R Ki (nM) [2]	Molecule
> 10	94	–	–	–	Nc1ccc(-c2c(Cl)cccc2Cl)c(N)n1 [Compound 1m, 3-(2,6-dichlorophenyl) pyridine-2,6-diamine]
2	81.4	500 to 1000	–	–	Cc1nc(N)ccc1-c1cccc(Cl)c1Cl [Compound 6b, 5-(2,3-dichlorophenyl)-6-methylpyridin-2-amine]
0.98	8	100 to 500	–	–	CC(C)c1ccccc1-c1ccc(N)nc1N [Compound 1e, 3-(2-isopropylphenyl) pyridine-2,6-diamine]
3.3	1090	–	–	–	CCc1cc(-c2cccc(Cl)c2Cl)c(N)nc1N [Compound 9b, 3-(2,3-dichlorophenyl)-5-ethylpyridine-2,6-diamine]
2.7	56	500 to 1000	–	–	Nc1ccc(Cc2ccc(Cl)cc2)c(N)n1 [Compound 10c, 3-(4-chlorobenzyl)pyridine-2,6-diamine]
0.8	424	–	–	–	Nc1ccc(-c2cccc(Cl)c2Cl)c(NCCc2ccccc2)n1 [Compound 5f, 3-(2,3-dichlorophenyl)-N2-phenethylpyridine-2,6-diamine]
8.8	786	> 1000	–	–	Nc1ccc(-c2ccc(Cl)cc2)c(N)n1 [Compound 1i, 3-(4-chlorophenyl)pyridine-2,6-diamine]
2.8	76 ± 12	> 1000	–	–	Nc1ccc(Cc2ccccc2)c(N)n1 [Compound 10a, 3-benzylpyridine-2,6-diamine]
4.6	65	100 to 500	–	–	Nc1ccc(-c2cccc(C(F)(F)F)c2Cl)c(N)n1 [Compound 1p, 3-(2-chloro-3-(trifluoromethyl)phenyl) pyridine-2,6-diamine]
3	13.8	100 to 500	–	–	COc1ccccc1-c1ccc(N)nc1N [Compound 2b, 3-(2-methoxyphenyl) pyridine-2,6-diamine]
18.6	461	> 1000	–	–	COCc1nc(N)ccc1-c1ccccc1OC [Compound 6e, 6-(methoxymethyl)-5-(2-methoxyphenyl)pyridin-2-amine]
1.8	3240	–	–	–	Nc1nc(N)c(-c2cccc(Cl)c2Cl)cc1F [Compound 9a, 3-(2,3-dichlorophenyl)-5-fluoropyridine-2,6-diamine]
26.7	335	100 to 500	–	–	Nc1ccc(-c2cc(Cl)ccc2Cl)c(N)n1 [Compound 1l, 3-(2,5-dichlorophenyl) pyridine-2,6-diamine]
1.18	28	100 to 500	–	–	Nc1ccc(-c2ccc(Cl)cc2Cl)c(N)n1 [Compound 1k, 3-(2,4-dichlorophenyl) pyridine-2,6-diamine]
2.2	79.2	500 to 1000	–	–	CCNc1nc(N)ccc1-c1cccc(Cl)c1Cl [Compound 5b, 3-(2,3-dichlorophenyl)-N2-ethylpyridine-2,6-diamine]
0.9	19	500 to 1000	–	–	Nc1ccc(Cc2cccc(Cl)c2)c(N)n1 [Compound 10d, 3-(3-chlorobenzyl)pyridine-2,6-diamine]

Ki [1] [µM]	Ki [2] [nM]	IC50 [3] [nM]	NPFF2-R Ki (nM) [1]	NPFF1-R Ki (nM) [2]	Molecule
1.3	39	500 to 1000	–	–	Nc1ccc(-c2ccccc2Cl)c(N)n1 [Compound 1b, 3-(2-chlorophenyl)pyridine-2,6-diamine]
1.9	250	> 1000	–	–	CC(C)Nc1nc(N)ccc1-c1cccc(Cl)c1Cl [Compound 5e, 3-(2,3-dichlorophenyl)-N2-isopropylpyridine-2,6-diamine]
1.1	11.8	500 to 1000	–	–	Nc1ccc(-c2ccccc2O)c(N)n1 [Compound 2a, 2-(2,6-diaminopyridin-3-yl)phenol]
–	481	–	ns	–	COCCNc1nc(N)ccc1-c1cccc(Cl)c1Cl [Compound 5g, 3-(2,3-dichlorophenyl)-N2-(2-methoxyethyl)pyridine-2,6-diamine]
2	6.2	100 to 500	–	–	CCc1ccccc1-c1ccc(N)nc1N [Compound 1d, 3-(2-ethylphenyl)pyridine-2,6-diamine]
4.2	122	> 1000	–	–	Nc1ccc(Cc2ccc(F)cc2)c(N)n1 [Compound 10b, 3-(4-fluorobenzyl)pyridine-2,6-diamine]
7.3	112	–	–	–	Cc1c(Cl)cccc1-c1ccc(N)nc1N [Compound 1q, 3-(3-chloro-2-methylphenyl) pyridine-2,6-diamine]
106	5080	–	–	–	Nc1ccc(-c2ccco2)c(N)n1 [Compound 3a, 3-(furan-2-yl)pyridine-2,6-diamine]
5.4	189	–	–	–	Nc1ccc(CCc2ccccc2)c(N)n1 [Compound 11a, 3-phenethylpyridine-2,6-diamine]
6.9	416	–	–	–	CCCCNc1nc(N)ccc1-c1cccc(Cl)c1Cl [Compound 5c, N2-butyl-3-(2,3-dichlorophenyl)pyridine-2,6-diamine]
–	–	–	ns	ns	COc1nc(N)ccc1-c1cccc(Cl)c1Cl [Compound 7a, 5-(2,3-dichlorophenyl)-6-methoxypyridin-2-amine]
6.3	440	–	–	–	Nc1ccc(-c2cccc(Cl)c2Cl)c(N2CCCCC2)n1 [Compound 5i, 5-(2,3-dichlorophenyl)-6-(piperidin-1-yl)pyridin-2-amine]
34	524	–	–	–	Nc1ccc(-c2cc3ccccc3o2)c(N)n1 [Compound 3c, 3-(benzofuran-2-yl) pyridine-2,6-diamine]
–	–	–	n.s.	n.s.	Nc1ccc(-c2ccoc2)c(N)n1 [Compound 3b, 3-(furan-3-yl)pyridine-2,6-diamine]
> 50	4080	–	–	–	COc1cc(N)nc(N)c1-c1cccc(Cl)c1Cl [Compound 8a, 3-(2,3-dichlorophenyl)-4-methoxypyridine-2,6-diamine]
3.2	1920	–	–	–	Nc1ccc(-c2cccc(Cl)c2Cl)c(NCCN2CCCCC2)n1 [Compound 5h, 3-(2,3-dichlorophenyl)-N2-(2-(piperidin-1-yl)ethyl)pyridine-2,6-diamine]

Molecule	Ki [1] [µM]	Ki [2] [nM]	IC50 [3] [nM]	NPFF2-R Ki (nM) [1]	NPFF1-R Ki (nM) [2]
3-(2-methoxyethoxyphenyl)pyridine-2,6-diamine [Compound 2h]	35.7	26	–	–	–
3-(2-(piperidin-1-yl)ethoxy)pyridine-2,6-diamine [Compound 2j]	0.45	33	–	–	–
5-(2-methoxyphenyl)-6-(trifluoromethoxy)pyridin-2-amine [Compound 6f]	> 10	> 5000	–	–	–
4′-methyl-[3,4′-bipyridine]-2,6-diamine [Compound 3f]	–	515	–	ns	–
